Usually IC50 stands for the point on the concentration scale where inhibition reaches its midpoint.

Structures are written as SMILES.

The target of one test is T1, human FAAH (Homo sapiens, UniProt O00519).
T1 construct: expressed in transfected cells; host or cells: H4 cells (H4-FAAH, Geneticin-selected); crude membrane homogenates
T1 sequence (O00519 1-579): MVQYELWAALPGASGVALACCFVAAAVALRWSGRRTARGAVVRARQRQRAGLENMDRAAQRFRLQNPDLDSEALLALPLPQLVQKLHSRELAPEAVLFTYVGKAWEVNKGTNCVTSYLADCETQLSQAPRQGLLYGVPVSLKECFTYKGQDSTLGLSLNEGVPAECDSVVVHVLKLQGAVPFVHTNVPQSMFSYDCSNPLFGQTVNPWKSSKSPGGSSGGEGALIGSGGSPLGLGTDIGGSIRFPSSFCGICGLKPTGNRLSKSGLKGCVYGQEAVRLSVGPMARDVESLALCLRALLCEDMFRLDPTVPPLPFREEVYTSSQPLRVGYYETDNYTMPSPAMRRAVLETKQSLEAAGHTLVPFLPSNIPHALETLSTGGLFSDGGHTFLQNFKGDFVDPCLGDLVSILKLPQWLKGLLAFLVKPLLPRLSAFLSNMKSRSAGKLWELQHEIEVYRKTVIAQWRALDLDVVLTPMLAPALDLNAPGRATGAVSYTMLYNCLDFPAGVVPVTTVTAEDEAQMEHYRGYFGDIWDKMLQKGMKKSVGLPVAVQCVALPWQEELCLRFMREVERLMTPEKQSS
In words: FAAH activity in membrane homogenates of H4-FAAH cells, [3H]-anandamide hydrolysis.
Conditions: not given
The format is biochemical. The protocol: Homogenates of crude membranes were prepared from H4 cells that express transfected human FAAH (H4-FAAH cells). Briefly, cells were grown in DMEM supplemented with 10% FBS and Geneticin at a final concentration of 500 μg/ml (Gibco BRL, Rockville, Md.). Confluent cultures of H4-FAAH cells were rinsed twice with phosphate-buffered saline [138 mM NaCl, 4.1 mM KCl, 5.1 mM Na2PO4, 1.5 mM KH2PO4 (pH 7.5), 37° C.] and incubated for 5 to 10 minutes at 4° C. in lysis buffer [1 mM sodium bicarbonate]. Cells were transferred from plates to polypropylene tubes (16×100 mm), homogenized and centrifuged at 32,000×g for 30 minutes. Pellets were resuspended by homogenization in lysis buffer and centrifuged at 32,000×g for 30 minutes. Pellets were resuspended in lysis buffer (15-20 μg protein/ml) then stored at −80° C. until needed. On the day of an experiment, membranes were diluted to 2.67 μg protein/ml in 125 mM Tris-Cl, pH 9.0.
Activity of FAAH was measured using a modification of the method described by Omeir et al., 1995 (Life Sci 56:1999, 1995). Membrane homogenates (240 ng protein) were incubated at room temperature for one hour with 1.67 nM anandamide [ethanolamine 1-^3H] (available from American Radiolabeled Chemical Inc., St Louis, Mo.) and 10 μM anandamide (available from Sigma/RBI, St. Louis, Mo.) in the absence and presence of inhibitors. The reaction was stopped by the addition of 1 volume of a solution of 1:1 methanol and dichloroethane. The mixture was shaken and then centrifuged at 1000×g for 15 minutes to separate the aqueous and organic phases. An aliquot of the aqueous phase, containing [^3H]-ethanolamine was withdrawn and counted by scintillation spectroscopy. Data were expressed as the percentage of [^3H]-ethanolamine formed versus vehicle, after subtraction of the background radioactivity determined in the presence of 10 μM arachidonyl trifluoromethyl ketone (ATFMK), an inhibitor of FAAH. IC50 values were determined using a four-parameter logistic equation for dose-response curves.
Molecule `CCCCCCCCCOc1ccc(NC(=O)O/N=C/c2cccnc2)cc1` [Example 4, 3-Pyridinecarboxaldehyde, O-[[[4-(nonyloxy)phenyl]amino]carbonyl]oxime] came in with an IC50 of under 0.01 µM. The molecule `CCCCCOc1ccc(NC(=O)O/N=C/c2ccccc2)cc1` [Example 11, Benzaldehyde, O-[[(4-pentyloxyphenyl)amino]carbonyl]oxime] showed an IC50 of under 0.01 µM. For the molecule `CCCCCOc1ccc(NC(=O)O/N=C/c2ccc(F)cc2)cc1` [Example 14, 4-Fluorobenzaldehyde, O-[[(4-pentyloxyphenyl)amino]carbonyl]oxime], the IC50 was under 0.01 µM.

The test is the same for the next values; noted with them: H4-FAAH cell membranes, 10 μM anandamide, room temperature, one hour; read-out: IC50.
With `CCCCCCCOc1ccc(NC(=O)O/N=C/c2cccnc2)cc1` [Example 1, 3-Pyridinecarboxaldehyde, O-[[[4-(Heptyloxy)phenyl]amino]carbonyl]oxime], the IC50 is under 0.01 µM. Same read-out and setting: under `CCCCOc1ccc(CNC(=O)Oc2cccnc2)cc1` [Example 2, (4-Butoxyphenyl)methylcarbamic acid, 3-pyridinyl ester] stands under 0.01 µM; under `CCCCCCCCCCCOc1ccc(NC(=O)O/N=C/c2cccnc2)cc1` [Example 3, 3-Pyridinecarboxaldehyde, O-[[[4-(undecyloxy)phenyl]amino]carbonyl]oxime], under 0.01 µM; under `CCOc1ccc(NC(=O)ON=C(C)C)cc1` [Example 6, 2-Propanone, O-[[(4-ethoxyphenyl)amino]carbonyl]oxime], 0.101 to 0.5 µM. On the same count and under the same terms, next, `CCCOc1ccc(NC(=O)ON=C(C)C)cc1` [Example 7, 2-Propanone, O-[[(4-propoxyphenyl)amino]carbonyl]oxime]: 0.101 to 0.5 µM; `CCCCCOc1ccc(NC(=O)ON=C(C)C)cc1` [Example 8, 2-Propanone, O-[[(4-pentyloxyphenyl)amino]carbonyl]oxime]: 0.01 to 0.1 µM. The same measure, in the same setting: next, `CCOc1ccc(NC(=O)O/N=C/c2ccccc2)cc1` [Example 9, Benzaldehyde, O-[[(4-ethoxyphenyl)amino]carbonyl]oxime]: 0.01 to 0.1 µM; `CCCOc1ccc(NC(=O)O/N=C/c2ccccc2)cc1` [Example 10, Benzaldehyde, O-[[(4-propoxyphenyl)amino]carbonyl]oxime]: under 0.01 µM. Turning to `CCOc1ccc(NC(=O)O/N=C/c2ccc(F)cc2)cc1` [Example 12, 4-Fluorobenzaldehyde, O-[[(4-ethoxyphenyl)amino]carbonyl]oxime], the half-maximal inhibitory concentration (IC50) lay in the range of 0.01 to 0.1 µM. In the case of `CCCOc1ccc(NC(=O)O/N=C/c2ccc(F)cc2)cc1` [Example 13, 4-Fluorobenzaldehyde, O-[[(4-propoxyphenyl)amino]carbonyl]oxime], the IC50 lay within 0.01 to 0.1 µM.

Regarding `CCOc1ccc(NC(=O)O/N=C/c2cccnc2)cc1` [Example 15, 3-Pyridinecarboxaldehyde, O-[[(4-ethoxyphenyl)amino]carbonyl]oxime], the IC50 lay within 0.101 to 0.5 µM. On the same count and under the same terms, under `CCCOc1ccc(NC(=O)O/N=C/c2cccnc2)cc1` [Example 16, 3-Pyridinecarboxaldehyde, O-[[(4-propoxyphenyl)amino]carbonyl]oxime] stands 0.01 to 0.1 µM; under `CCCCCOc1ccc(NC(=O)O/N=C/c2cccnc2)cc1` [Example 17, 3-Pyridinecarboxaldehyde, O-[[(4-pentyloxyphenyl)amino]carbonyl]oxime], under 0.01 µM; under `CCCCOc1ccc(NC(=O)ON=C(C)C)cc1OC` [Example 18, 2-Propanone, O-[[(4-butoxy-3-methoxyphenyl)amino]carbonyl]oxime], over 0.5 µM. The same measure, in the same setting: under `CCCCOc1ccc(NC(=O)O/N=C/c2ccccc2)cc1OC` [Example 19, Benzaldehyde, O-[[(4-butoxy-3-methoxyphenyl)amino]carbonyl]oxime] stands 0.101 to 0.5 µM. On the same count and under the same terms, next, `CCCCOc1ccc(NC(=O)O/N=C/c2ccc(F)cc2)cc1OC` [Example 20, 4-Fluorobenzaldehyde, O-[[(4-butoxy-3-methoxyphenyl)amino]carbonyl]oxime]: 0.101 to 0.5 µM; `CCCCOc1ccc(NC(=O)O/N=C/c2cccnc2)cc1OC` [Example 21, 3-Pyridinecarboxaldehyde, O-[[(4-butoxy-3-methoxyphenyl)amino]carbonyl]oxime]: over 0.5 µM. On to `CCCCCCOc1ccc(NC(=O)ON=C(C)C)cc1` [Example 22, 2-Propanone, O-[[(4-hexyloxyphenyl)amino]carbonyl]oxime], for which the IC50 was 0.01 to 0.1 µM. In the case of `CCCCCCOc1ccc(NC(=O)O/N=C/c2ccccc2)cc1` [Example 23, Benzaldehyde, O-[[(4-hexyloxyphenyl)amino]carbonyl]oxime], the IC50 is under 0.01 µM. Turning to `CCCCCCOc1ccc(NC(=O)O/N=C/c2ccc(F)cc2)cc1` [Example 24, 4-Fluorobenzaldehyde, O-[[(4-hexyloxyphenyl)amino]carbonyl]oxime], the IC50 is under 0.01 µM. `CCCCCCOc1ccc(NC(=O)O/N=C/c2cccnc2)cc1` [Example 25, 3-Pyridinecarboxaldehyde, O-[[(4-hexyloxyphenyl)amino]carbonyl]oxime]: the IC50 is under 0.01 µM.

Consider `CCCCCCCOc1ccc(NC(=O)ON=C(C)C)cc1` [Example 26, 2-Propanone, O-[[(4-heptyloxyphenyl)amino]carbonyl]oxime], for which the IC50 was under 0.01 µM. Still for that read-out and setting: under `CCCCCCCOc1ccc(NC(=O)O/N=C/c2ccccc2)cc1` [Example 27, Benzaldehyde, O-[[(4-heptyloxyphenyl)amino]carbonyl]oxime] stands under 0.01 µM; under `CCCCCCCOc1ccc(NC(=O)O/N=C/c2ccc(F)cc2)cc1` [Example 28, 4-Fluorobenzaldehyde, O-[[(4-heptyloxyphenyl)amino]carbonyl]oxime], under 0.01 µM; under `CCCCCCCCOc1ccc(NC(=O)ON=C(C)C)cc1` [Example 29, 2-Propanone, O-[[(4-octyloxyphenyl)amino]carbonyl]oxime], under 0.01 µM. On the same count and under the same terms, under `CCCCCCCCOc1ccc(NC(=O)O/N=C/c2cccnc2)cc1` [Example 30, 3-Pyridinecarboxaldehyde, O-[[(4-octyloxyphenyl)amino]carbonyl]oxime] stands under 0.01 µM; under `CCCCCCCCCOc1ccc(NC(=O)ON=C(C)C)cc1` [Example 31, 2-Propanone, O-[[(4-nonyloxyphenyl)amino]carbonyl]oxime], under 0.01 µM. On the same count and under the same terms, next, `CCCCCCCCCCOc1ccc(NC(=O)ON=C(C)C)cc1` [Example 32, 2-Propanone, O-[[(4-decyloxyphenyl)amino]carbonyl]oxime]: under 0.01 µM. Consider `CCCCCCCCCCOc1ccc(NC(=O)O/N=C/c2ccccc2)cc1` [Example 33, Benzaldehyde, O-[[(4-decyloxyphenyl)amino]carbonyl]oxime], for which the IC50 is under 0.01 µM. On to `CCCCCCCCCCOc1ccc(NC(=O)O/N=C/c2ccc(F)cc2)cc1` [Example 34, 4-Fluorobenzaldehyde, O-[[(4-decyloxyphenyl)amino]carbonyl]oxime], for which the IC50 is under 0.01 µM. On the same count and under the same terms, next, `CCCCCCCCCCOc1ccc(NC(=O)O/N=C/c2cccnc2)cc1` [Example 35, 3-Pyridinecarboxaldehyde, O-[[(4-decyloxyphenyl)amino]carbonyl]oxime]: under 0.01 µM; `CCCCCCCCCCCOc1ccc(NC(=O)ON=C(C)C)cc1` [Example 36, 2-Propanone, O-[[(4-undecyloxyphenyl)amino]carbonyl]oxime]: under 0.01 µM; `CCCCCCCCCCCOc1ccc(NC(=O)O/N=C/c2ccccc2)cc1` [Example 37, Benzaldehyde, O-[[(4-undecyloxyphenyl)amino]carbonyl]oxime]: under 0.01 µM. The same measure, in the same setting: next, `CCCCCCCCCCCOc1ccc(NC(=O)O/N=C/c2ccc(F)cc2)cc1` [Example 38, 4-Fluorobenzaldehyde, O-[[(4-undecyloxyphenyl)amino]carbonyl]oxime]: under 0.01 µM.

With `CCCCOc1ccc(NC(=O)O/N=C/c2ccccc2)cc1` [Example 39, Benzaldehyde, O-[[(4-butoxyphenyl)amino]carbonyl]oxime], the IC50 is under 0.01 µM.

Source of the values: US6949574B2 (Bristol-Myers Squibb Company, priority 2002, dated 2005).
